PubChem BioAssay AID652148 (Molecular Libraries Program, Specialized Chemistry Center, …, 2013)
pIC50: −log10 of the molar value. Active and inactive are the calls of the source. No rule for the calls is given here.

Target: Rho GTPase-activating protein 1 (Homo sapiens) (UniProt Q07960)
Assay: ARHGAP1 GAP activity inhibitors on Rac1 – biochemical, Biomol green phosphate read-out, selectivity assay for MgcRacGAP inhibitor project, dose response (AID 652148)
Details: p50RhoGAP-stimulated Rac1 GTP hydrolysis; for inhibition: at 100 µM (top of the series)

Chain of Rho GTPase-activating protein 1 (Homo sapiens) (Q07960 whole entry, looked up): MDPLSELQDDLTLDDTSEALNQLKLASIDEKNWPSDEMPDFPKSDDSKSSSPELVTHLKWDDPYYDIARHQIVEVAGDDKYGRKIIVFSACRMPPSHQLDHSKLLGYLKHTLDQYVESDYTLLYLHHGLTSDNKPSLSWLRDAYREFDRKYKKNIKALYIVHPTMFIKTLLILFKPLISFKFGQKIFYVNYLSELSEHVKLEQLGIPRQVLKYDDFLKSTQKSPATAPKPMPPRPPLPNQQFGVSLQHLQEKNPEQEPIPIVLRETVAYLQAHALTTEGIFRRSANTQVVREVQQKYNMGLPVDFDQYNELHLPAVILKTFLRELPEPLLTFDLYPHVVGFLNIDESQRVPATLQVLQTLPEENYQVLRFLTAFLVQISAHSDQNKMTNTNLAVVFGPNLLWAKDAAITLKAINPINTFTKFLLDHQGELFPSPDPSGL

Compound	pIC50	inhibition
Cn1ccc(=Nc2ccc(NC(=O)c3ccc(N=c4ccn(C)c5ccc([N+](=O)[O-])cc45)cc3)cc2)cc1	4.65	–
CC1=NNC(=O)C1Br (stereo unspecified)	–	inactive
C[n+]1c(-c2ccc(C=NNC(=O)c3ccc(C(=O)NN=Cc4ccc(-c5cn6ccccc6[n+]5C)cc4)cc3)cc2)cn2ccccc21	–	inactive
COC(=O)c1cccc(-n2sc3ccccc3c2=O)c1	–	inactive
Nc1ccc(OCc2ccco2)cc1	–	inactive
Cc1cc(C)c2c(=N)c3ccccc3n(CCCCCCCCn3c4ccccc4c(=N)c4c(C)cc(C)nc43)c2n1	4.65	–
O=C1C=CC(=O)c2c(O)c(N3CCN(CCOCCO)CC3)c(Br)c(O)c21	4.49	–
CN(C)c1nc(=NCc2cccs2)ss1	4.83	–
CC(=O)Nc1ccc2sn(-c3ccccc3)c(=O)c2c1	4.65	–
O=C1C=CC(=O)c2c(O)c(N3CCN(CCO)CC3)c(Cl)c(O)c21	4.44	–
O=C1C(=Cc2ccco2)CCC1=Cc1ccco1	4.57	–
O=C1NC(=S)N(c2ccccc2)C(=O)/C1=C/c1ccco1	5.40	–
CC1OC(CC(=O)O)CC2=C1C(=O)c1c(O)cccc1C2=O (stereo unspecified)	5.06	–
O=c1c2ccccc2sn1-c1ccc(F)cc1	4.45	–
O=C(O)C1CSC(c2ccco2)N1 (stereo unspecified)	4.79	–
O=C(O)c1cccc(-n2sc3ccccc3c2=O)c1	4.99	–
O=c1c2ccccc2sn1-c1ccccc1F	–	inactive
O=C1C=CC(=O)N1c1ccccc1N1C(=O)C=CC1=O	4.80	–
COc1ccc(NC2CCCN(C(=O)C3(C)CCCCC3)C2)cc1 (stereo unspecified)	–	inactive
O=c1c2ccccc2sn1-c1ccc(Cl)cc1Cl	–	inactive
COc1ccc(/C=N/Nc2cc(C)nc3ccc(OC)cc23)c(OC)c1	–	inactive
CN(C)c1ccc(C=c2c3cc(O)ccc3n3c2cc(-c2ccccc2)[n+]3C)cc1	4.44	–
O=c1c2sc3ccccc3c2[nH]c(=S)n1CCN1CCOCC1	–	inactive

Compound	pIC50	inhibition
COc1ccc(-n2sc3ccccc3c2=O)cc1	–	inactive
O=C1C(SCCO)=C(SCCO)C(=O)c2ccccc21	–	inactive
CSc1nc(N)c(N=Nc2ccc([As](=O)(O)O)cc2)c(=O)[nH]1	5.51	–
O=C(O)c1cc(N2N=C(C(F)(F)F)/C(=C/C=C/c3ccco3)C2=O)ccc1Cl	5.33	–
O=c1c2ccc(F)cc2sn1-c1ccccc1	–	inactive
Cc1ccc(-n2sc3cc(F)ccc3c2=O)c(C)c1	–	inactive
CCN1CCN(Cc2ccc(NC(=O)c3ccc(C)c(/C=C/c4cnc(Nc5cc(N6CCNCC6)nc(C)n5)cn4)c3)cc2C(F)(F)F)CC1	4.27	–
COc1ccc(Nc2ccc3ccccc3c2)cc1	–	inactive
CN(C)c1ccc(/C=C/c2cc[n+](C)c3ccccc23)cc1	–	inactive
O=c1c2ccccc2sn1-c1cccc(Cl)c1	4.95	–
O=c1c2cc(F)ccc2sn1-c1ccccc1	5.69	–
Nc1n[nH]c(=S)n1/N=C1/C(=O)Nc2ccccc21	–	inactive
Cc1ccc(C)c(-n2sc3ccc(F)cc3c2=O)c1	–	inactive
O=C(Nc1ccccc1Cl)/C(Cl)=C(\Cl)S(=O)c1ccccc1 (stereo unspecified)	4.68	–
O=c1c2cc(F)ccc2sn1-c1ccccc1Cl	4.61	–
Cc1c(Cl)sn(-c2ccc(Cl)cc2)c1=O	–	inactive
CCN(CC)c1ccc(C(=C2C=CC(=[N+](CC)CC)C=C2)c2ccc(N(CC)CC)cc2)cc1	4.66	–
CN(C)c1ncc(C2=C(Cl)C(=O)C(N3CCCC3)=C(Cl)C2=O)s1	4.97	–
COc1ccc(-n2sc3ccc(F)cc3c2=O)cc1	4.82	–
O=C1C(Cl)=C(NC(=O)c2ccccc2)C(=O)C(Cl)=C1NC(=O)c1ccccc1	4.34	–
Cc1cc(N)c2cc(NC(=O)/C=C/c3ccccc3Cl)ccc2n1	–	inactive
O=C(O)c1cc(N2C(=O)C=CC2=O)cc(N2C(=O)C=CC2=O)c1	–	inactive
O=c1c2ccccc2sn1-c1ccc(Cl)cc1	4.91	–
